Values joined by “and” are separate entries in the source; they are usually repeats but may differ in a detail not shown here. Equal values may be shown once. Read-outs that look alike come from different tables or passages of the source.
Experiments:
[1] = tested on: P. falciparum Dd2-2D4; assay: P. falciparum asexual blood stage (ABS) growth assay, SYBR Green, 72 h, wild-type parasites; format: cell-based, Plasmodium falciparum; details: for EC50: Plasmodium falciparum, DD2, SI Fig 16b, values on -log scale, read-out: ABS - Dd2-2D4 (converted)
[2] = molecular target: T1, PfcProRS (Plasmodium falciparum, UniProt Q8I5R7); format: binding; details: for Normalized response, dose-response replicates (SI Fig 14): replicates 1-3; for PfcProRS -- best Kd: SI Fig 16a, values on -log scale
T1 construct: made in house; host or cells: E. coli SoluBL-21

[3] = molecular target: HsProRS (Homo sapiens, UniProt P07814); assay: TR-FRET ligand displacement assay with tracer MAT379 (CoraFluor-1-Halo and anti-His6 antibody formats); format: binding; parameters: made in house; host or cells: E. coli SoluBL-21
[4] = HsProRS (KD [nM]) + 100 μM proline mean, + 100 μM proline
[5] = HsProRS (KD [nM]) mean, no added proline/ATP (-)
[6] = read-out: HsProRS IC50 + 100 μM proline, + 100 μM proline

Sequence of HsProRS (P07814 996-1512): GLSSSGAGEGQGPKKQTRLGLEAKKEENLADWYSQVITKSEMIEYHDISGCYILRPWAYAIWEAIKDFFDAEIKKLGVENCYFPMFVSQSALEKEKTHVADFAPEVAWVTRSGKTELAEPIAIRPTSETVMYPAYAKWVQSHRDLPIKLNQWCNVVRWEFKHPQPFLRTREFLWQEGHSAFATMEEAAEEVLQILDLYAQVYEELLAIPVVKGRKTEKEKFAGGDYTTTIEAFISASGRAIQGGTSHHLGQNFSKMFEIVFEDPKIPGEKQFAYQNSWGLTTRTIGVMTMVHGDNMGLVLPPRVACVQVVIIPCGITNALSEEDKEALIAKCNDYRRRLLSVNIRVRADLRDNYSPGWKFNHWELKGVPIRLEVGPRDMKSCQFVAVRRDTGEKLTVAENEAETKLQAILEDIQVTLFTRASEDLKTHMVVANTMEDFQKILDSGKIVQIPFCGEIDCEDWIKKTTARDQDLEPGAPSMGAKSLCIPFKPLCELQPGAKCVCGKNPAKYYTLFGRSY
T1 sequence (Q8I5R7 249-746): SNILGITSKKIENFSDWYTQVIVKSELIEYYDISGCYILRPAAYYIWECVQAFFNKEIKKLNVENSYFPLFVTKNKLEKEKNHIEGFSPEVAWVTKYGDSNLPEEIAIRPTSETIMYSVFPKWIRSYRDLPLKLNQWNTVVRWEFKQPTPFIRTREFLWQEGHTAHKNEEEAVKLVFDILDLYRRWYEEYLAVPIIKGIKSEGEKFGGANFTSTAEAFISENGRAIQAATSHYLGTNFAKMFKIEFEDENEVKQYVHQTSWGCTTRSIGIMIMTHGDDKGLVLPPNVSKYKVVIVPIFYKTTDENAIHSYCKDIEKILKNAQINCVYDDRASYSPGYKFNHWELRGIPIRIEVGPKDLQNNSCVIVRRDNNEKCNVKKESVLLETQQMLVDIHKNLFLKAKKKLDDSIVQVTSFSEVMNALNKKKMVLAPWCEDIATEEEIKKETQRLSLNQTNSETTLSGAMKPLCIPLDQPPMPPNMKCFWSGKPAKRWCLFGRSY

SMILES	EC50 [1] [µM]	Normalized response, dose-response replicates (SI Fig 14) ([2]; Log[inhibitor] (M) -5.000)	Normalized response, dose-response replicates (SI Fig 14) ([2]; Log[inhibitor] (M) -5.301)	Normalized response, dose-response replicates (SI Fig 14) ([2]; Log[inhibitor] (M) -5.601)	Normalized response, dose-response replicates (SI Fig 14) ([2]; Log[inhibitor] (M) -5.904)	Normalized response, dose-response replicates (SI Fig 14) ([2]; Log[inhibitor] (M) -6.208)	Normalized response, dose-response replicates (SI Fig 14) ([2]; Log[inhibitor] (M) -6.509)	Normalized response, dose-response replicates (SI Fig 14) ([2]; Log[inhibitor] (M) -6.796)	Normalized response, dose-response replicates (SI Fig 14) ([2]; Log[inhibitor] (M) -7.108)	Normalized response, dose-response replicates (SI Fig 14) ([2]; Log[inhibitor] (M) -7.409)	Normalized response, dose-response replicates (SI Fig 14) ([2]; Log[inhibitor] (M) -7.710)	Normalized response, dose-response replicates (SI Fig 14) ([2]; Log[inhibitor] (M) -8.000)	Normalized response, dose-response replicates (SI Fig 14) ([2]; Log[inhibitor] (M) -8.301)	Normalized response, dose-response replicates (SI Fig 14) ([2]; Log[inhibitor] (M) -8.602)	Normalized response, dose-response replicates (SI Fig 14) ([2]; Log[inhibitor] (M) -9.000)	Normalized response, dose-response replicates (SI Fig 14) ([2]; Log[inhibitor] (M) -9.301)	IC50 [3] [µM]	HsProRS % signal at 10 μM, + 100 μM proline ([3]; + 100 μM proline) [%]	HsProRS % signal at 10 μM ([3]; no added proline/ATP (-)) [%]	IC50 [3, 6] [µM]	other results
CC(C)(C)OC(=O)NCCCCCC(=O)NCC1CCN(C(=O)Nc2nccnc2C(=O)NC2Cc3ccccc3C2)CC1 [compound 43]	3.33	3.94E-01 and 2.57E-01 and 2.74E-01	4.70E-01 and 4.27E-01 and 4.95E-01	6.21E-01 and 6.23E-01 and 5.88E-01	7.25E-01 and 7.36E-01 and 7.34E-01	8.39E-01 and 7.98E-01 and 7.48E-01	9.01E-01 and 9.26E-01 and 9.21E-01	8.44E-01 and 9.34E-01 and 8.61E-01	8.07E-01 and 9.41E-01 and 7.86E-01	8.06E-01 and 8.12E-01 and 9.38E-01	9.31E-01 and 8.84E-01 and 7.70E-01	9.59E-01 and 9.87E-01 and 9.57E-01	1.01E+00 and 8.79E-01 and 9.74E-01	9.04E-01 and 9.28E-01 and 9.93E-01	8.86E-01 and 8.79E-01 and 9.68E-01	8.43E-01 and 8.23E-01 and 8.26E-01	–	–	–	–	PfcProRS -- best Kd [2]: 6.495; Kd [3, 4]: 2280 nM; Kd [3, 5]: 611 nM
NCCCCCC(=O)NCC1CCN(C(=O)Nc2nccnc2C(=O)NC2Cc3ccccc3C2)CC1 [compound 44]	–	5.04E-02 and 6.61E-02 and 1.21E-01	2.04E-01 and 9.30E-02 and 7.91E-02	1.77E-01 and 2.33E-01 and 2.91E-01	3.70E-01 and 3.87E-01 and 3.95E-01	5.30E-01 and 6.18E-01 and 4.52E-01	5.98E-01 and 6.58E-01 and 5.97E-01	8.14E-01 and 8.03E-01 and 8.36E-01	7.21E-01 and 9.08E-01 and 7.69E-01	9.22E-01 and 9.63E-01 and 8.84E-01	9.26E-01 and 9.41E-01 and 9.94E-01	9.86E-01 and 9.96E-01 and 9.45E-01	1.01E+00 and 1.07E+00 and 1.09E+00	1.05E+00 and 9.10E-01 and 8.68E-01	8.54E-01 and 1.03E+00 and 1.01E+00	1.02E+00 and 8.64E-01 and 7.91E-01	–	–	–	–	% signal at 10 μM, wildtype (Dd2-2D4) ([1]; wildtype (Dd2-2D4), 10 μM): 51.4%; PfcProRS -- best Kd [2]: 6.569; Kd [3, 5]: 1570 nM; Kd ([3]; HsProRS - best Kd, SI Fig 16a, values on -log scale): 330 nM
Nc1nccnc1C(=O)NC1Cc2ccccc2C1 [compound 45]	13.6	9.00E-01 and 8.01E-01 and 8.09E-01	8.40E-01 and 9.11E-01 and 9.42E-01	1.06E+00 and 1.02E+00 and 9.65E-01	1.09E+00 (2×) and 1.04E+00	9.29E-01 and 9.65E-01 and 9.12E-01	8.69E-01 and 9.97E-01 and 9.91E-01	1.07E+00 and 1.10E+00 and 9.29E-01	1.07E+00 and 1.01E+00 and 9.62E-01	8.73E-01 and 9.86E-01 and 1.07E+00	9.54E-01 and 1.09E+00 and 1.02E+00	9.85E-01 and 1.09E+00 and 1.00E+00	1.09E+00 and 9.49E-01 and 9.81E-01	1.13E+00 and 9.21E-01 and 9.56E-01	1.01E+00 and 9.94E-01 and 8.80E-01	9.92E-01 (2×) and 9.81E-01	> 10	83.7	90.2	> 10	–
CNc1nccnc1C(=O)NC1Cc2ccccc2C1 [compound 46]	8.11	8.16E-01 and 6.16E-01 and 6.52E-01	8.98E-01 and 7.41E-01 and 8.21E-01	9.35E-01 and 8.99E-01 and 9.60E-01	1.14E+00 and 9.86E-01 and 9.79E-01	1.04E+00 and 1.02E+00 and 8.92E-01	1.02E+00 (2×) and 9.27E-01	1.13E+00 and 1.15E+00 and 1.04E+00	9.45E-01 and 1.04E+00 and 8.83E-01	1.08E+00 and 9.92E-01 and 1.03E+00	9.83E-01 and 1.09E+00 and 9.75E-01	9.64E-01 and 1.04E+00 and 9.43E-01	1.03E+00 (2×) and 1.01E+00	1.06E+00 and 9.77E-01 and 1.03E+00	9.75E-01 and 9.25E-01 and 9.98E-01	9.09E-01 and 1.02E+00 and 8.23E-01	> 10	91.7	97.1	> 10	–
O=c1[nH]c2nccnc2c(=O)n1C1Cc2ccccc2C1 [compound 47]	11.1	3.53E-01 and 3.73E-01 and 3.10E-01	5.89E-01 and 4.94E-01 and 3.58E-01	7.17E-01 and 7.23E-01 and 6.31E-01	1.01E+00 and 8.61E-01 and 7.86E-01	1.02E+00 and 1.03E+00 and 9.13E-01	9.57E-01 and 9.63E-01 and 9.85E-01	1.08E+00 and 9.96E-01 and 1.07E+00	9.59E-01 and 1.12E+00 and 1.15E+00	1.11E+00 and 1.34E+00 and 1.10E+00	1.07E+00 (2×) and 1.12E+00	1.02E+00 and 1.00E+00 and 1.01E+00	1.13E+00 and 1.06E+00 and 1.10E+00	1.07E+00 and 9.89E-01 and 9.49E-01	9.68E-01 and 9.48E-01 and 1.08E+00	9.08E-01 and 1.04E+00 and 1.01E+00	> 10	–	79.5	–	Kd [3, 4]: 2650 nM
Nc1nccnc1C(=O)NC1CCCCC1 [compound 48]	8.75	7.98E-01 and 9.64E-01 and 8.59E-01	1.00E+00 and 9.90E-01 and 9.60E-01	1.12E+00 and 9.39E-01 and 1.04E+00	1.09E+00 and 1.16E+00 and 9.71E-01	1.14E+00 and 9.41E-01 and 1.00E+00	1.15E+00 and 1.05E+00 and 9.08E-01	9.89E-01 and 9.81E-01 and 1.09E+00	9.93E-01 and 1.12E+00 and 9.45E-01	1.04E+00 and 1.09E+00 and 1.06E+00	1.09E+00 and 9.79E-01 and 1.07E+00	1.09E+00 and 1.00E+00 and 1.03E+00	1.08E+00 and 1.10E+00 and 1.07E+00	1.05E+00 and 1.09E+00 and 1.03E+00	1.01E+00 and 1.14E+00 and 9.74E-01	1.02E+00 and 1.01E+00 and 1.04E+00	> 10	87.4	89.6	> 10	–
